{"source": "patent US10738067B2", "about": "“Inhibitors of cyclin-dependent kinase 7 (CDK7)” (Syros Pharmaceuticals, Inc., priority 2018, dated 2020)", "key": {"[1]": {"test_system": "HCC70 cells", "assay": "HCC70 cell proliferation assay (CyQUANT Direct, 72 hours)", "format": "cell-based", "conditions": "Homo sapiens, inhibition of proliferation", "method": "The HCC70 cell line was derived from human TNBC, and we tested representative compounds of the invention, at different concentrations (from 4 μM to 126.4 pM; 0.5 log serial dilutions), for their ability to inhibit the proliferation of those cells. More specifically, we tested the same compounds tested above for CDK7 selectivity (the structures of which are shown in FIG. 1), and we used the known CDK inhibitors dinaciclib (or […]) and triptolide as positive controls. The cells were grown in ATCC-formulated RPMI-1640 medium (ATCC 30-2001) supplemented with 10% fetal bovine serum (FBS), at 37° C. in a humidified chamber in the presence of 5% CO2. We conducted proliferation assays over a 72-hour time period using a CyQUANT® Direct Cell Proliferation Assay (Life Technologies, Chicago, Ill. USA) according to the manufacturer's directions and utilizing the reagents supplied with the kit."}, "[2]": {"test_system": "palbociclib-resistant ER+BC PDX (ST1799)", "assay": "Tumor growth inhibition in palbociclib-resistant ER+BC PDX model ST1799", "format": "in vivo, Mice", "conditions": "last day of 28 days dosing, Compound 101 6 mg/kg QD PO, fulvestrant 2.5 mg/kg once weekly SC, palbociclib 50 mpk QD PO", "method": "(§1) Tumor growth inhibition was evaluated in estrogen receptor-positive breast cancer (ER+BC) PDX models selected in vivo for resistance to the CDK4/6 inhibitor palbociclib (ST1799, n=1) or resistance to both palbociclib and fulvestrant (ST941, n=1). Dosing was initiated when tumors were 100-200 mm^3."}, "[3]": {"test_system": "palbociclib and fulvestrant double-resistant ER+BC PDX model (ST941)", "assay": "Tumor growth inhibition in palbociclib and fulvestrant double-resistant ER+BC PDX model ST941", "format": "in vivo, Mice", "conditions": "fulvestrant 2.5 mg/kg once weekly SC; for anti-tumor activity (in words): palbociclib 50 mpk QD PO", "method": "as §1"}, "[4]": {"test_system": "ST390 (modeling pancreatic ductal adenocarcinoma (PDAC))", "assay": "Tumor growth inhibition in PDAC PDX model ST390", "format": "in vivo, NOD/SCID mice", "description": "(§2) In the TNBC model, Compound 101 was orally administered to tumor-bearing NOD/SCID mice at 10 mg/kg QD or 5 mg/kg BID for 21 days. In the SCLC and HGSOC models, Compound 101 was orally administered to tumor-bearing NOD/SCID mice at 3 mg/kg BID for 21 days. In the PDAC model, Compound 101 was orally administered to tumor-bearing NOD/SCID mice at 6 mg/kg QD. In the TNBC, SCLC, and HGSOC models, tumor volume was measured during the treatment period and for an additional 21 days after treatment ceased. […] The % regression was calculated as: (Mean TV Compound 101 @ EOT)/(Mean TV Compound 101 @Day 0)×100. The same calculations were used for end of study (day 42)."}, "[5]": {"test_system": "PDX models BR5010 (TNBC), LU5178 (SCLC), OV15398 (HGSOC)", "assay": "Tumor growth inhibition in TNBC, SCLC and HGSOC PDX models", "format": "in vivo, NOD/SCID mice"}, "[6]": {"test_system": "12 PDX models representing SCLC, TNBC and HGSOC", "assay": "Tumor growth inhibition in 12 PDX models (SCLC, TNBC, HGSOC)", "format": "in vivo, Mice", "description": "We evaluated TGI in 12 different PDX models (Crown Biosciences) in various tumor indications with PDXs representing SCLC (n=5; LU5180, LU5178, LU5192, LU5173, LU5210), TNBC (n=4; BR5010, BR1458, BR5399, BR10014) and HGSOC (n=3; OV15398, OV5392, OV15631). Dosing was initiated when tumors were 150-300 mm^3. […] TGI was calculated on the last day of dosing using the formula: TGI=(Vc1−Vt1)/(Vc0−Vt0), where Vc1 and Vt1 are the mean volumes of control and treated groups at the time of tumor extraction, while Vc0 and Vt0 are the same groups at the start of dosing."}, "[7]": {"assay": "in vivo", "conditions": "NOD/SCID, mouse, oral", "description": "as §2\n(§3) Dosing was initiated when tumors were 150-300 mm^3. Mice were treated with either Compound 101, QD (6 or 10 mg/kg once daily, by mouth) or BID (3 or 5 mg/kg twice daily, by mouth) over the course of 21 days, followed by 21 days of observation. TGI was calculated on the last day of dosing using the formula: TGI=(Vc1−Vt1)/(Vc0−Vt0), where Vc1 and Vt1 are the mean volumes of control and treated groups at the time of tumor extraction, while Vc0 and Vt0 are the same groups at the start of dosing."}, "[8]": {"assay": "Tolerability in tumor-bearing mice (PDX studies)", "conditions": "all once-daily doses tested", "description": "as §2, §3"}}}
{"smiles": "C[C@H]1CC[C@H](Nc2ncc(C(F)(F)F)c(-c3c[nH]c4c(P(C)(C)=O)c(C#N)ccc34)n2)CN1", "note": "[Compound 100, 7-dimethylphosphoryl-3-[2-[[(3S, 6S)-6-methyl-3-piper-idyl]amino]-5-(trifluoromethyl)pyrimidin-4-yl]-1H-indole-6-carbonitrile]", "values": [{"measurement": "EC50", "setting": "[1]", "result": 0.98, "unit": "nM"}]}
{"smiles": "CC1(C)CC[C@H](Nc2ncc(C(F)(F)F)c(-c3c[nH]c4c(P(C)(C)=O)c(C#N)ccc34)n2)CN1", "note": "[Compound 101, (S)-7-(dimethylphosphoryl)-3-(2-((6,6-dimethylpiperidin-3-yl)amino)-5-(trifluoromethyl)pyrimidin-4-yl)-1H-indole-6-carbonitrile]", "values": [{"measurement": "EC50", "setting": "[1]", "result": 5.6, "unit": "nM"}, {"measurement": "Tumor growth inhibition (TGI)", "setting": "[2]", "result": 83, "unit": "%"}, {"measurement": "Tumor growth inhibition (TGI)", "setting": "[3]; last day of 28 days dosing, Compound 101 6 mg/kg QD PO", "result": 33, "unit": "%"}, {"measurement": "Tumor growth inhibition (TGI)", "setting": "[4]; 6 mg/kg QD PO, over ~28 days, sub-MTD dose", "result": 100, "unit": "%"}, {"measurement": "tumor volume", "setting": "[4]; day 21, 6 mg/kg QD, PO", "result": "about 250 mm^3"}, {"measurement": "TGI (in words)", "setting": "[5]; TNBC 10 mg/kg QD or 5 mg/kg BID, SCLC and HGSOC 3 mg/kg BID, oral, 21 days, plus 21 days observation", "result": "deep and sustained TGI, including regressions"}, {"measurement": "transcriptional responses in xenograft tissue", "setting": "[5]; observed within 4 hours of dosing, sustained for 24 hours", "result": "Dose-dependent transcriptional responses"}, {"measurement": "TGI at the end of the 21-day dosing period", "setting": "[6]; all 12 PDX models, 6 or 10 mg/kg QD or 3 or 5 mg/kg BID, by mouth", "result": "at least 50%"}, {"measurement": "tumor regrowth after treatment discontinuation", "setting": "[6]; subset of models (7/12), 21 days after treatment discontinuation", "result": "no evidence of tumor regrowth"}, {"measurement": "TGI of deep responses (TGI or regression)", "setting": "[6]; subset of models (58%, 7/12)", "result": "> 95", "unit": "%"}, {"measurement": "MTD at 21 days", "setting": "[7]", "result": "> 10", "unit": "mg/kg"}, {"measurement": "body weight loss (tolerability)", "setting": "[8]", "result": "no evident body weight loss"}]}
{"smiles": "CC1(C)CNC[C@@H](Nc2ncc(C(F)(F)F)c(-c3c[nH]c4c(P(C)(C)=O)c(C#N)ccc34)n2)C1", "note": "[Compound 102, (S)-7-(dimethylphosphoryl)-3-(2-((5,5-dimethylpiperidin-3-yl)amino)-5-(trifluoromethyl)pyrimidin-4-yl)-1H-indole-6-carbonitrile]", "values": [{"measurement": "EC50", "setting": "[1]", "result": 2.1, "unit": "nM"}]}
{"smiles": "C[C@]12CC[C@@H]3c4ccc(O)cc4C[C@@H](CCCCCCCCC[S+]([O-])CCCC(F)(F)C(F)(F)F)[C@H]3[C@@H]1CC[C@@H]2O", "note": "(stereo partly drawn) [fulvestrant]", "values": [{"measurement": "Tumor growth inhibition (TGI)", "setting": "[2]", "result": 60, "unit": "%"}, {"measurement": "anti-tumor activity (in words)", "setting": "[3]", "result": "no activity"}]}
{"smiles": "CC(=O)c1c(C)c2cnc(Nc3ccc(N4CCNCC4)cn3)nc2n(C2CCCC2)c1=O", "note": "[palbociclib]", "values": [{"measurement": "Tumor growth inhibition (TGI)", "setting": "[2]", "result": 21, "unit": "%"}, {"measurement": "anti-tumor activity (in words)", "setting": "[3]", "result": "no activity"}]}
